{
  "source": "patent US20110257204A1",
  "about": "“Penciclovir or Famciclovir for Treatment of Recurrent Genital Herpes with a One-Day Application” (priority 2005, published 2011)",
  "key": {"[1]": {"settings": "patients receiving famciclovir in earlier studies; cited from earlier work"}, "[2]": {"test_system": "recurrent genital herpes lesions", "format": "in vivo, human", "settings": "for Time to healing of all lesions (median) / Proportion of aborted lesions: ITT; for Time to healing of all lesions (median): aborted lesions assigned time to healing of zero; for Time to healing of all lesions (median) / Proportion of aborted lesions / Time to healing of non-aborted lesions (median): famciclovir 1,000 mg b.i.d. for one day; for Hazard ratio, time to healing of non-aborted lesions: famciclovir 1,000 mg b.i.d. one day vs placebo", "experimental": "The multi-center, multi-country, randomized, double-blind parallel-group, placebo controlled study is conducted to assess the efficacy and safety of a patient-initiated one-day treatment with famciclovir ([…]) 1,000 mg, twice a day, in patients with recurrent genital herpes. Approximately 450 eligible patients are randomized in a 1:1 ratio to receive either famciclovir (1,000 mg, twice a day) or matching placebo for one day. Patients are instructed to obtain a viral sample and initiate treatment within six hours of prodrome and/or recurrence of genital herpes lesions. All patients are required to return for clinic visits for observation of lesions on Days 2 and 3. Patients with lesions will continue with clinic visits on Days 4 and 5, then every other day until it is deemed that lesion healing has occurred however not to exceed Day 14. The following Table 1 represents the study design. Each patient receives either Famciclovir 2,000 mg [1,000 mg (4×250 mg capsules)] orally or placebo (4×250 mg matching placebo capsules) orally twice in one day. Study medication is to be administered twice in one day (during normal waking hours). One-day equals to 24 hours, if the patent starts a first dose in the PM the second should be taken upon waking in the AM. The first dose is taken within six hours of prodrome and/or genital herpes lesion occurrence. Within 6 hours of recurrence of either genital herpes symptom onset and/or lesion and prior to initiating therapy, patients obtain a viral sample for PCR at Visit 1. The sample is brought to the clinic at Visit 2. Patients maintain a diary to assess and record appearance/stage and location of lesion. From Visit 2 onwards, physicals are performed by clinician who examines genitalia for herpes lesions. Patients with lesions will continue with clinic visit on Days 4 (Visit 5) and 5 (Visit 6) then every other day until clinician investigator deems that the lesion healing has occurred however not to exceed Day 14. Should patients only experience symptoms, without onset of herpes lesion, these patients will return for clinic visits until resolution of symptoms. The primary efficacy variable refers to the investigator-assessed time to healing (re-epithelization, erythema may be present) of all non-aborted genital herpes lesions from the time of the first dose of study medication. Non-aborted lesions refer to all lesions requiring re-epithelization: lesions which undergo vesicular, ulcer/soft crust, hard crust formation. […] Primary efficacy variable is analyzed using the proportional hazards model, with treatment, gender and study center as explanatory variables, for patients over the modified ITT population. The Efron approximate likelihood method is used for resolution of ties. The 95% confidence intervals for the hazard ratio and median times to healing is calculated. The time to healing based on investigator-assessment (with aborted lesions assigned a time of zero) is analyzed on the PCR-positive and the ITT populations. A proportional hazards model is used in analysis, with treatment, gender, and study center as explanatory variables. The Efron approximate likelihood method is used for resolution of ties. A 95% confidence interval for the hazard ratio and median times to healing is calculated. Covariates and interactions listed for the primary efficacy variable are assessed separately by adding their terms into the proportional hazards model. The time to resolution of each symptom, as well as the time to resolution of all symptoms, will be analyzed using a proportional hazards model with treatment, gender, and study center as explanatory variables, over the ITT population. The proportion of patients reporting each symptom is presented descriptively, and compared between treatments using the Chochran-Mantel-Haenszel 9CHM) test, stratified by gender and study center, over the ITT population. […]"}, "[3]": {"settings": "regardless of the dose given; cited from earlier work"}, "[4]": {"test_system": "recurrent genital herpes lesions", "settings": "previous trial; clinic-initiated treatment, low dose 125 mg twice a day for five days; cited from earlier work"}},
  "note": "Like-named read-outs stand apart in the source and are kept apart here.",
  "data": [
    {"smiles": "CC(=O)OCC(CCn1cnc2cnc(N)nc21)COC(C)=O", "note": "[famciclovir, 9-(4-acetoxy-3-acetoxymethylbut-1-yl)-2-aminopurine]", "values": [
      {"measurement": "Most commonly reported adverse events", "setting": "[1]", "result": "headache and nausea"},
      {"measurement": "Time to healing of all lesions (median)", "setting": "[2]", "result": 3.5, "unit": "days"},
      {"measurement": "Time to healing of all lesions (median)", "setting": "[2]; listed as Famciclovir", "result": 4.3, "unit": "days"},
      {"measurement": "Proportion of aborted lesions", "setting": "[2]", "result": 23.3, "unit": "%"},
      {"measurement": "Proportion of aborted lesions", "setting": "[2]; listed as Famciclovir", "result": 23.3, "unit": "%"},
      {"measurement": "Time to healing of non-aborted lesions (median)", "setting": "[2]; Modified ITT, oral, patient-initiated within 6 hours", "result": 4.3, "unit": "days"},
      {"measurement": "Hazard ratio, time to healing of non-aborted lesions", "setting": "[2]; Modified ITT, proportional hazards model", "result": 1.64},
      {"measurement": "Time to healing of non-aborted lesions (median)", "setting": "[2]; Per Protocol", "result": 4.3, "unit": "days"},
      {"measurement": "Hazard ratio, time to healing of non-aborted lesions", "setting": "[2]; Per Protocol", "result": 1.72},
      {"measurement": "Reduction of median time to healing of recurrent genital herpes lesions compared to placebo", "setting": "[2]; famciclovir 1,000 mg twice a day, one day, immunocompetent patients, non-aborted lesions", "result": "two"},
      {"measurement": "Bioavailability", "setting": "[3]", "result": 77, "unit": "%"},
      {"measurement": "Hazard ratio between famciclovir and placebo for time to healing", "setting": "[4]", "result": 1.48}
    ]}
  ]
}
